Patent US6855730B2, “3-methylidenyl-2-indolinone modulators of protein kinase” (Sugen, Inc., priority 1998, dated 2005)

Experiments:
PDGFR-β = target: T1, PDGFR-β (Homo sapiens, UniProt P09619); test: Biochemical PDGFR assay (ELISA, PDGFR-β expressing NIH 3T3 cell lysate); details: read-out: bio PDGF IC50
T1 construct: host or cells: NIH 3T3
Outline: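 PDGFR-β from NIH 3T3 cell lysate captured on anti-PDGFR (28D4C10)-coated plates; compound preincubated 30 min, then 20 μM ATP kinase reaction 30 min at room temperature, stopped with EDTA. Phosphotyrosine detected by anti-phosphotyrosine antibody, peroxidase conjugate and ABTS/H2O2, read at 410 nm.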

[1] = target: Myc-GyrB-FGFR fusion protein (Homo sapiens, UniProt P11362); test: Biochemical FGFR assay (ELISA); details: read-out: bio fgfR1 IC50
Chain of Myc-GyrB-FGFR fusion protein (P11362 478-767 limits assumed): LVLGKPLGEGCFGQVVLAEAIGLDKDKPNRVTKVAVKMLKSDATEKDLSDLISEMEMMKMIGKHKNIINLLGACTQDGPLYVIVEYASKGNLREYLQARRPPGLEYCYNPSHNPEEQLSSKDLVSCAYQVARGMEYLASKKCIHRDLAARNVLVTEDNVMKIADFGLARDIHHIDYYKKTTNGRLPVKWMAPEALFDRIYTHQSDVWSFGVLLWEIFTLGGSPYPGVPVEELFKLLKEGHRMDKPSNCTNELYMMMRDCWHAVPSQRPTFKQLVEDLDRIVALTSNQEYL

flkGST = target: T2, flkGST (Homo sapiens, UniProt P35968); test: bio flkGST assay; type: biochemical
T2 construct: GST
T2 sequence (P35968 786-1356 limits assumed): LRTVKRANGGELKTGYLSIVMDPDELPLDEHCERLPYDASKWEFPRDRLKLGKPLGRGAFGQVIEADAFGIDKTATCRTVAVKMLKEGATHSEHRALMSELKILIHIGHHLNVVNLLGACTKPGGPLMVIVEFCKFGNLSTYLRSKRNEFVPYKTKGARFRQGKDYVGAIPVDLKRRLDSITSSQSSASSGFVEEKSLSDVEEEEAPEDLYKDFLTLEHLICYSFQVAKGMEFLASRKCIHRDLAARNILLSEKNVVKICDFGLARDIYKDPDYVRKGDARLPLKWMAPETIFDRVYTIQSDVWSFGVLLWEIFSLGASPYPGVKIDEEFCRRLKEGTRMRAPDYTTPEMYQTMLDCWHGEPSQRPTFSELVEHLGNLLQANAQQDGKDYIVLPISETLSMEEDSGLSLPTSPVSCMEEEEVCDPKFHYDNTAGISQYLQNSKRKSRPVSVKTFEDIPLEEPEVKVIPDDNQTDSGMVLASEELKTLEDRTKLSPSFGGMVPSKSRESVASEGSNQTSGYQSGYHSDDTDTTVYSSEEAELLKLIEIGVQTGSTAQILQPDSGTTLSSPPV

EGFR = EGFR (Homo sapiens, UniProt P00533); test: Biochemical EGFR assay (ELISA, A431 cell lysate); set-up: A431 cell lysate (Screening Lab, SUGEN, Inc.); host or cells: A431; details: read-out: bio EGFr IC50
Chain of EGFR (P00533 25-1210): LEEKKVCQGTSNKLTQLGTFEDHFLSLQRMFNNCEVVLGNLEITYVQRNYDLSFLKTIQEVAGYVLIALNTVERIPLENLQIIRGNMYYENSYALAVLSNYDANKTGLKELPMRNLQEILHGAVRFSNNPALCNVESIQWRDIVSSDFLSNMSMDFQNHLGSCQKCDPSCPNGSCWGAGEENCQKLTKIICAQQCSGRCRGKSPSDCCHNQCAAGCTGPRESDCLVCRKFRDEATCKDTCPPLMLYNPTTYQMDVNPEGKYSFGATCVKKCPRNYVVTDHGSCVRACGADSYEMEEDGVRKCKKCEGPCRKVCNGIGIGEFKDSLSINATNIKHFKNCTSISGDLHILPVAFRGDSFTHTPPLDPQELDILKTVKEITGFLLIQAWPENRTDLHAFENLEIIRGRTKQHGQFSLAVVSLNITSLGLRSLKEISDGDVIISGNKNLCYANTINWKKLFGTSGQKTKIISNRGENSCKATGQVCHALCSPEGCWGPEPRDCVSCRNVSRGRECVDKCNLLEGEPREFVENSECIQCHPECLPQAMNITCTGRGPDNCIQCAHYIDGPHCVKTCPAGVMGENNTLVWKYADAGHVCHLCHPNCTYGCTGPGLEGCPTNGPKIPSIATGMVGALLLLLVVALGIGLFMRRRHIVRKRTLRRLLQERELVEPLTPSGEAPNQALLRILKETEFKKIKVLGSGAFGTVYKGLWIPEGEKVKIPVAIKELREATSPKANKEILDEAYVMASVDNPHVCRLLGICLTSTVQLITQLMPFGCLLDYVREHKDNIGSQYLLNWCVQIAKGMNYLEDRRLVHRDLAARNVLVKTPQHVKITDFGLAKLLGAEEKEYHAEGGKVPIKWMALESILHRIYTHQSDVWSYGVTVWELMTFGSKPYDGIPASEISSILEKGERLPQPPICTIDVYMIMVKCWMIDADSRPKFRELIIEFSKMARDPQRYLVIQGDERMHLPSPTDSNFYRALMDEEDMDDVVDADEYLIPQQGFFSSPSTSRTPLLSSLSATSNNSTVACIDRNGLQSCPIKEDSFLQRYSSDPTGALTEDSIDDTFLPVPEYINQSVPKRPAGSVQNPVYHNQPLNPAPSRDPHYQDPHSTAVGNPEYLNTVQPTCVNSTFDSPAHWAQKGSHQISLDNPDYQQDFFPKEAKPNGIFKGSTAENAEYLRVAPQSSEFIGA
Experimental: This assay measures the in vitro kinase activity of EGFR using ELISA.
Materials and Reagents • 1. […] SUMO1 monoclonal anti-EGFR antibody (Biochemistry Lab, SUGEN, Inc.). • 3. PBS (Dulbecco's Phosphate-Buffered Saline, Gibco Catalog No. 450-1300EB). • 4. TBST Buffer
• 6. A431 cell lysate (Screening Lab, SUGEN, Inc.) • 7. TBS Buffer:
Prepare a 1.0 mM solution in dH2O. This reagent should be made up immediately prior to use and kept on ice. • 10. MnCl2.
Prepare a 1.0 M stock solution in dH2O. • 11. ATP/MnCl2 phosphorylation mix
This reagent should be prepared immediately before use and kept on ice. • 12. NUNC 96-well V bottom polypropylene plates (Applied Scientific Cat. No. AS-72092). • 13. Ethylenediaminetetraacetic acid (EDTA)
Prepare 200 mM working solution in dH2O. Adjust to pH 8.0 with 10 N NaOH. • 14. Rabbit polyclonal anti-phosphotyrosine serum (Biochemistry Lab, SUGEN, Inc.) • 15. Goat anti-rabbit IgG peroxidase conjugate (Biosource Cat. No. ALI0404) • 16. ABTS (2,2′-azino-bis(3-ethylbenzthiazoline-6-sulfonic acid), Sigma Cat. No. A-1888).
Mix first two ingredients in about 900 ml dH2O, adjust pH to 4.0 with phosphoric acid. Add ABTS, cover, let sit about 0.5 hr., filter. The solution should be kept in the dark at 4° C. until ready to use. • 17. Hydrogen peroxide 30% solution (Fisher Cat. No. H325) • 18. ABTS/H2O2 • Mix 15 ml ABTS solution and 2.0 μl H2O2. Prepare 5 minutes before use. • 19. 0.2 M HCl
Procedure • 1. Coat Corning 96 well ELISA plates with 0.5 μg SUMO1 in 100 μl PBS per well, store overnight at 4° C. • 2. Remove unbound SUMO1 from wells by inverting plate to remove liquid., Wash 1× with dH2O. Pat the plate on a paper towel to remove excess liquid. • 3. Add 150 μl of Blocking Buffer to each well. Incubate for 30 min. at room temperature with shaking. • 4. Wash plate 3× with deionized water, then once with TBST. Pat plate on a paper towel to remove excess liquid and bubbles. • 5. Dilute lysate in PBS (7 μg lysate/100 μl PBS). • 6. Add 100 μl of diluted lysate to each well. Shake at room temperature for 60 min. • 7. Wash plates as described in 4, above. • 8. Add 120 μl TBS to ELISA plate containing captured EGFR. • 9. Dilute test compound 1:10 in TBS in 96-well polypropylene plates (i.e. 10 μl compound+90 μl TBS). • 10. Add 13.5 μl diluted test compound to ELISA plate. […] Incubate for 30 minutes while shaking at room temperature. • 12. […] After 5 minutes, stop reaction by adding 16.5 μl of 200 mM EDTA (pH 8.0) to each well, shaking continuously. After the EDTA has been added, shake for 1 min. • 14. Wash 4× with deionized water, twice with TBST. • 15. Add 100 μl anti-phosphotyrosine (1:3000 dilution in TBST) per well. Incubate 30-45 min. at room temperature, with shaking. • 16. Wash as described in 4, above. • 17. Add 100 μl Biosource Goat anti-rabbit IgG peroxidase conjugate (1:2000 dilution in TBST) to each well. Incubate 30 min. at room temperature, with shaking. • 18. Wash as described in 4, above. • 19. Add 100 μl of ABTS/H2O2 solution to each well. • 20. Incubate 5 to 10 minutes with shaking. Remove any bubbles. • 21. If necessary stop reaction with the addition of 100 μl 1 0.2 M HCl per well. • 22. Read assay on Dynatech MR7000 ELISA reader. Test Filter: 410 nM Reference Filter: 630 Nm.

T1 sequence (P09619 33-1106): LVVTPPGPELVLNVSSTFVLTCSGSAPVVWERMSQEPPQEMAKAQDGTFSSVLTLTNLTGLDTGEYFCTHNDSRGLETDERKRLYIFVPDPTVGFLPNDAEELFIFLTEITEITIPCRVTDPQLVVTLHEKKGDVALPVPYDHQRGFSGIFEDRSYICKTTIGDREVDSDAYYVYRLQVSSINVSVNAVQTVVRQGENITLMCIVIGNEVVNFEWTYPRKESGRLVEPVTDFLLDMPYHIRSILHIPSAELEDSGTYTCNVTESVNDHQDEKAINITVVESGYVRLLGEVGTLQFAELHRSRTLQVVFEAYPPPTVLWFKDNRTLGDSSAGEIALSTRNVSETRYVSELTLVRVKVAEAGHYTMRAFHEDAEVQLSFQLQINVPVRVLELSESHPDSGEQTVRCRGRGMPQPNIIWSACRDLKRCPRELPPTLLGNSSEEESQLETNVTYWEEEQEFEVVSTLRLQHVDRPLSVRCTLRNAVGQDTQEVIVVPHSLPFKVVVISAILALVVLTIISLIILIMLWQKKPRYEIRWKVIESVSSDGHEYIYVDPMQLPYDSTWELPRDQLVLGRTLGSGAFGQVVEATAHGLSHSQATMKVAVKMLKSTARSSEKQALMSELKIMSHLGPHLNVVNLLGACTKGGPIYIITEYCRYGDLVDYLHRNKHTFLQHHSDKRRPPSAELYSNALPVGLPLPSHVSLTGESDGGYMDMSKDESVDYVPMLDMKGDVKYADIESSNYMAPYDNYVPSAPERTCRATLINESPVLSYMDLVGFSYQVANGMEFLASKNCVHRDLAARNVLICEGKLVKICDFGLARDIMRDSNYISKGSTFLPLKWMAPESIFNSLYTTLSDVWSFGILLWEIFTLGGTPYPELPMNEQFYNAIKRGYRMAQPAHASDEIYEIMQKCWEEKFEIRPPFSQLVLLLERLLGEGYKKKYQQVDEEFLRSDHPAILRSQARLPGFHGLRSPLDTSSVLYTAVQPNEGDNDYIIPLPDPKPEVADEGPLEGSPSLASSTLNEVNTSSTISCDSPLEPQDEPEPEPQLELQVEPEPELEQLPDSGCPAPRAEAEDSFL

| IC50 (PDGFR-β) [µM] | IC50 [1] [µM] | IC50 (flkGST) [µM] | IC50 (EGFR) [µM] | SMILES |
| --- | --- | --- | --- | --- |
| > 100 | 16.6 | 26.9 | > 100 | CCOC(=O)c1[nH]c(/C=C2\C(=O)Nc3ccc(Br)cc32)c(CCC(=O)O)c1C [Example 143, 5-(5-Bromo-2-oxo-1,2-dihydroindol-3-ylidenemethyl)-4-(2-carboxy-ethyl)-3-methyl-1H-pyrrole-2-carboxylic acid ethyl ester] |
| > 100 | > 20 | 15.3 | > 100 | CCOC(=O)c1[nH]c(/C=C2\C(=O)Nc3ccc(S(=O)(=O)N(C)C)cc32)c(CCC(=O)O)c1C [Example 147, 4-(2-Carboxyethyl)-5-(5-dimethylsulfamoyl-2-oxo-1,2-dihydro-indol-3-ylidenemethyl)-3-methyl-1H-pyrrole-2-carboxylic acid ethyl ester] |
| > 100 | 5.9 | 21.1 | > 100 | CCOC(=O)c1[nH]c(/C=C2\C(=O)Nc3cc(Br)ccc32)c(CCC(=O)O)c1C [Example 142, 5-(6-Bromo-2-oxo-1,2-dihydroindol-3-ylidenemethyl)-4-(2-carboxy-ethyl)-3-methyl-1H-pyrrole-2-carboxylic acid ethyl ester] |
| > 100 | 12.8 | 6.65 | > 100 | CCOC(=O)c1[nH]c(/C=C2\C(=O)Nc3ccc(OC)cc32)c(CCC(=O)O)c1C [Example 140, 4-(2-Carboxyethyl)-5-(5-methoxy-2-oxo-1,2-dihydroindol-3-ylidenemethyl)-3-methyl-1H-pyrrole-2-carboxylic acid ethyl ester] |
| > 100 | > 20 | 23.9 | > 100 | CCOC(=O)c1[nH]c(/C=C2\C(=O)Nc3ccc(S(=O)(=O)NC(C)C)cc32)c(CCC(=O)O)c1C [Example 148, 4-(2-Carboxyethyl)-5-(5-isopropylsulfamoyl-2-oxo-1,2-dihydro-indol-3-ylidenemethyl)-3-methyl-1H-pyrrole-2-carboxylic acid ethyl ester] |
| > 100 | 2.77 | 9.03 | > 100 | CCOC(=O)c1[nH]c(/C=C2\C(=O)Nc3cc(-c4ccccc4)ccc32)c(CCC(=O)O)c1C [Example 144, 4-(2-Carboxyethyl)-3-methyl-5-(2-oxo-6-phenyl-1,2-dihydroindol-3-ylidenemethyl)-1H-pyrrole-2-carboxylic acid ethyl ester] |
| > 100 | 15.6 | 11.8 | > 100 | CCOC(=O)c1[nH]c(C=C2C(=O)Nc3ccc(S(N)(=O)=O)cc32)c(CCC(=O)O)c1C [Example 145, 4-(2-Carboxyethyl)-3-methyl-5-(2-oxo-5-sulfamoyl-1,2-dihydro-indol-3-ylidenemethyl)-1H-pyrrole-2-carboxylic acid ethyl ester] |
| 85.1 | 8.38 | 11.5 | > 100 | CCOC(=O)c1[nH]c(/C=C2\C(=O)Nc3cc(OC)ccc32)c(CCC(=O)O)c1C [Example 141, 4-(2-Carboxyethyl)-5-(6-methoxy-2-oxo-1,2-dihydroindol-3-ylidenemethyl)-3-methyl-1H-pyrrole-2-carboxylic acid ethyl ester] |
| 0.02 | > 20 | 2.36 | > 100 | CCOC(=O)c1c(C)[nH]c(/C=C2\C(=O)Nc3ccc(Cl)cc32)c1CCC(=O)O [Example 112, 4-(2-Carboxyethyl)-5-(5-chloro-2-oxo-1,2-dihydroindol-3-ylidenemethyl)-2-methyl-1H-pyrrole-3-carboxylic acid ethyl ester] |
| > 100 | 12.6 | 7.56 | > 100 | CCOC(=O)c1[nH]c(/C=C2\C(=O)Nc3cccc(C)c32)c(CCC(=O)O)c1C [Example 139, 4-(2-Carboxyethyl)-3-methyl-5-(4-methyl-2-oxo-1,2-dihydroindol-3-ylidenemethyl)-1H-pyrrole-2-carboxylic acid ethyl ester] |
